Structures are written as SMILES. Several values for one entry are separate records, joined by “and”; a condition that tells them apart may be missing. Equal values may be shown once. ± gives the expanded uncertainty stated by the source.

This note sets out measurements from the NIST ThermoML archive (doi:10.1021/je400630f).

For series [1] the following is noted: 100 kPa, Liquid; for viscosity: Capillary tube (Ostwald / Ubbelohde) method.
Series [2] is described as follows: xn = mol fraction of the nth substance listed. Conditions: 100 kPa, Liquid, x1 = 1; for viscosity: Capillary tube (Ostwald / Ubbelohde) method.

Consider `CCCCO` [butan-1-ol], for which the mass density in series [1] (283.15 K) stood at 817.3 ± 1.2 kg/m3; in series [1] (293.15 K), 809.6 ± 1.3 kg/m3; in series [1] (298.15 K), 805.8 ± 1.3 kg/m3; in series [1] (303.15 K) it was 802.1 ± 1.3 kg/m3; in series [1] (313.15 K), 794.3 ± 1.3 kg/m3. Also, the viscosity in series [1] (283.15 K) came out at 3.822 ± 0.079 mPa·s; in series [1] (293.15 K), 2.859 ± 0.059 mPa·s; in series [1] (298.15 K) it was 2.558 ± 0.053 mPa·s; in series [1] (303.15 K), 2.236 ± 0.046 mPa·s; in series [1] (313.15 K) it was 1.736 ± 0.036 mPa·s.

As for `CCCCCCCCCCO` [decan-1-ol], the mass density in series [1] (283.15 K) was determined as 836.6 ± 1.2 kg/m3; in series [1] (293.15 K) it was 829.9 ± 1.2 kg/m3; in series [1] (298.15 K) it was 826.5 ± 1.2 kg/m3; in series [1] (303.15 K) it was 823 ± 1.2 kg/m3; in series [1] (313.15 K) it was 816.2 ± 1.3 kg/m3. In addition, the viscosity in series [1] (283.15 K) came out at 22.06 ± 0.45 mPa·s; in series [1] (293.15 K), 14.5 ± 0.3 mPa·s; in series [1] (298.15 K) it was 11.47 ± 0.24 mPa·s; in series [1] (303.15 K), 9.61 ± 0.2 mPa·s; in series [1] (313.15 K) it was 6.9 ± 0.14 mPa·s.

As for `CCO` [ethanol], the mass density in series [1] (283.15 K) is reported as 798 ± 1.3 kg/m3; in series [1] (293.15 K), 789.5 ± 1.4 kg/m3; in series [1] (298.15 K), 785.2 ± 1.4 kg/m3; in series [1] (303.15 K) it was 781.1 ± 1.4 kg/m3; in series [1] (313.15 K), 772.3 ± 1.4 kg/m3. Further, the viscosity in series [1] (283.15 K) is 1.475 ± 0.031 mPa·s; in series [1] (293.15 K) it was 1.196 ± 0.025 mPa·s; in series [1] (298.15 K), 1.102 ± 0.023 mPa·s; in series [1] (303.15 K) it was 0.996 ± 0.021 mPa·s and 0.994 ± 0.021 mPa·s; in series [1] (313.15 K), 0.842 ± 0.018 mPa·s.

Turning to `CCO` [ethanol] + CCCCCCCCCCO, the viscosity stood at 1.475 ± 0.031 mPa·s in series [2] (283.15 K); 1.196 ± 0.025 mPa·s in series [2] (293.15 K); 1.102 ± 0.023 mPa·s in series [2] (298.15 K); 0.996 ± 0.021 mPa·s in series [2] (303.15 K); 0.842 ± 0.018 mPa·s in series [2] (313.15 K). Further, the mass density is listed as 798 ± 1.3 kg/m3 in series [2] (283.15 K); 789.5 ± 1.4 kg/m3 in series [2] (293.15 K); 785.2 ± 1.4 kg/m3 in series [2] (298.15 K); 781.1 ± 1.4 kg/m3 in series [2] (303.15 K); 772.3 ± 1.4 kg/m3 in series [2] (313.15 K).

With `CCO` [ethanol] + CCCCCCCCCO, the viscosity in series [2] (283.15 K) is 1.475 ± 0.031 mPa·s; in series [2] (293.15 K) it was 1.196 ± 0.025 mPa·s; in series [2] (298.15 K), 1.102 ± 0.023 mPa·s; in series [2] (303.15 K), 0.996 ± 0.021 mPa·s; in series [2] (313.15 K) it was 0.842 ± 0.018 mPa·s. Besides, the mass density in series [2] (283.15 K) is listed as 798 ± 1.3 kg/m3; in series [2] (293.15 K) it was 789.5 ± 1.4 kg/m3; in series [2] (298.15 K) it was 785.2 ± 1.4 kg/m3; in series [2] (303.15 K), 781.1 ± 1.4 kg/m3; in series [2] (313.15 K) it was 772.3 ± 1.4 kg/m3.

As for `CCO` [ethanol] + CCCCCCCCO, the viscosity in series [2] (283.15 K) was found to be 1.475 ± 0.031 mPa·s; in series [2] (293.15 K), 1.196 ± 0.025 mPa·s; in series [2] (298.15 K) it was 1.102 ± 0.023 mPa·s; in series [2] (303.15 K) it was 0.994 ± 0.021 mPa·s; in series [2] (313.15 K), 0.842 ± 0.018 mPa·s. Moreover, the mass density in series [2] (283.15 K) was found to be 798 ± 1.3 kg/m3; in series [2] (293.15 K), 789.5 ± 1.4 kg/m3; in series [2] (298.15 K) it was 785.2 ± 1.4 kg/m3; in series [2] (303.15 K), 781.1 ± 1.4 kg/m3; in series [2] (313.15 K), 772.3 ± 1.4 kg/m3.

As for `CCO` [ethanol] + CCCCCCCO, the viscosity in series [2] (283.15 K) is 1.475 ± 0.031 mPa·s; in series [2] (293.15 K) it was 1.196 ± 0.025 mPa·s; in series [2] (298.15 K) it was 1.102 ± 0.023 mPa·s; in series [2] (303.15 K), 0.996 ± 0.021 mPa·s; in series [2] (313.15 K) it was 0.842 ± 0.018 mPa·s. Also, the mass density in series [2] (283.15 K) was 798 ± 1.3 kg/m3; in series [2] (293.15 K), 789.5 ± 1.4 kg/m3; in series [2] (298.15 K), 785.2 ± 1.4 kg/m3; in series [2] (303.15 K), 781.1 ± 1.4 kg/m3; in series [2] (313.15 K) it was 772.3 ± 1.4 kg/m3.

`CCO` [ethanol] + CCCCCO: the viscosity turned out to be 1.475 ± 0.031 mPa·s in series [2] (283.15 K); 1.196 ± 0.025 mPa·s in series [2] (293.15 K); 1.102 ± 0.023 mPa·s in series [2] (298.15 K); 0.996 ± 0.021 mPa·s in series [2] (303.15 K); 0.842 ± 0.018 mPa·s in series [2] (313.15 K). Moreover, the mass density in series [2] (283.15 K) was 798 ± 1.3 kg/m3; in series [2] (293.15 K), 789.5 ± 1.4 kg/m3; in series [2] (298.15 K), 785.2 ± 1.4 kg/m3; in series [2] (303.15 K) it was 781.1 ± 1.4 kg/m3; in series [2] (313.15 K), 772.3 ± 1.4 kg/m3.

For `CCO` [ethanol] + CCCCO, the viscosity in series [2] (283.15 K) amounted to 1.475 ± 0.031 mPa·s; in series [2] (293.15 K), 1.196 ± 0.025 mPa·s; in series [2] (298.15 K), 1.102 ± 0.023 mPa·s; in series [2] (303.15 K), 0.996 ± 0.021 mPa·s; in series [2] (313.15 K), 0.842 ± 0.018 mPa·s. In addition, the mass density in series [2] (283.15 K) was determined as 798 ± 1.3 kg/m3; in series [2] (293.15 K), 789.5 ± 1.4 kg/m3; in series [2] (298.15 K) it was 785.2 ± 1.4 kg/m3; in series [2] (303.15 K), 781.1 ± 1.4 kg/m3; in series [2] (313.15 K), 772.3 ± 1.4 kg/m3.

With `CCCCCCCO` [heptan-1-ol], the mass density in series [1] (283.15 K) amounted to 829.6 ± 1.3 kg/m3; in series [1] (293.15 K), 822.6 ± 1.3 kg/m3; in series [1] (298.15 K), 819.1 ± 1.3 kg/m3; in series [1] (303.15 K) it was 815.6 ± 1.3 kg/m3; in series [1] (313.15 K), 808.4 ± 1.4 kg/m3. The viscosity was found to be 10.15 ± 0.21 mPa·s in series [1] (283.15 K); 7.026 ± 0.15 mPa·s in series [1] (293.15 K); 5.947 ± 0.12 mPa·s in series [1] (298.15 K); 5.041 ± 0.11 mPa·s in series [1] (303.15 K); 3.802 ± 0.08 mPa·s in series [1] (313.15 K).

For `CCCCCCCCCO` [nonan-1-ol], the mass density in series [1] (283.15 K) is listed as 835 ± 1.3 kg/m3; in series [1] (293.15 K), 828.1 ± 1.3 kg/m3; in series [1] (298.15 K), 824.7 ± 1.3 kg/m3; in series [1] (303.15 K), 821.3 ± 1.3 kg/m3; in series [1] (313.15 K), 814.3 ± 1.4 kg/m3. For the same compound, the viscosity in series [1] (283.15 K) stood at 17.44 ± 0.36 mPa·s; in series [1] (293.15 K) it was 11.63 ± 0.24 mPa·s; in series [1] (298.15 K), 9.519 ± 0.2 mPa·s; in series [1] (303.15 K), 7.806 ± 0.16 mPa·s; in series [1] (313.15 K), 5.668 ± 0.12 mPa·s.

For the compound `CCCCCCCCO` [octan-1-ol], the mass density in series [1] (283.15 K) is reported as 832.1 ± 1.2 kg/m3; in series [1] (293.15 K), 825.2 ± 1.2 kg/m3; in series [1] (298.15 K), 821.9 ± 1.2 kg/m3; in series [1] (303.15 K), 818.4 ± 1.3 kg/m3; in series [1] (313.15 K) it was 811.4 ± 1.3 kg/m3. In addition, the viscosity amounted to 13.49 ± 0.28 mPa·s in series [1] (283.15 K); 9.016 ± 0.19 mPa·s in series [1] (293.15 K); 7.39 ± 0.15 mPa·s in series [1] (298.15 K); 6.306 ± 0.13 mPa·s in series [1] (303.15 K); 4.587 ± 0.095 mPa·s in series [1] (313.15 K).

For `CCCCCO` [pentan-1-ol], the mass density in series [1] (283.15 K) is given as 822.1 ± 1.3 kg/m3; in series [1] (293.15 K), 814.7 ± 1.3 kg/m3; in series [1] (298.15 K) it was 811.2 ± 1.3 kg/m3; in series [1] (303.15 K), 807.5 ± 1.3 kg/m3; in series [1] (313.15 K), 800 ± 1.4 kg/m3. Also, the viscosity in series [1] (283.15 K) is recorded as 5.417 ± 0.11 mPa·s; in series [1] (293.15 K), 3.974 ± 0.083 mPa·s; in series [1] (298.15 K), 3.441 ± 0.072 mPa·s; in series [1] (303.15 K), 2.99 ± 0.062 mPa·s; in series [1] (313.15 K), 2.263 ± 0.047 mPa·s.

As usually defined, the mass density is mass per unit of volume. As a reminder, the viscosity is the resistance of a fluid to flow.
